Tested on: Neonatal foreskin fibroblasts
Experiment: EGF production in foreskin fibroblasts cultured with naltrexone and TLR agonists (ELISA)
Assay type: cell-based
Details: treatment of fibroblasts with opioid receptor antagonist, 12 hours of culture, 50% confluent
Text: The present example characterizes the use of naltrexone and a TLR agonist to stimulate EGF production in foreskin fibroblasts as an example of a type of fibroblasts.
Neonatal foreskin fibroblasts were obtained from ATCC and cultured in typical DMEM culture media containing 10% fetal calf serum and antibiotics. After 3 days of culture, fibroblasts where plated in 12 well plates and cultured at 50% confluent conditions. Addition of naltrexone (Sigma Aldrich®) and the indicated TLR agonists was performed for 12 hours of culture. Pam3CSK4 was added at a total concentration of 1 ug/ml. LPS was added at 0.5 ug/ml. CpG was added at 0.2 ug/ml. Concentration of EGF was assessed using ELISA (R&D Systems).

Structure (SMILES): O=C1CC[C@@]2(O)[C@H]3Cc4ccc(O)c5c4[C@@]2(CCN3CC2CC2)[C@H]1O5 [naltrexone]
- production of growth factors including EGF by fibroblasts: induce production of various growth factors including EGF

From patent publication US12716055B2, “Treatment of disc degenerative disease and stimulation of proteoglycan synthesis by fibroblast conditioned media and formulations thereof” (FIBROBIOLOGICS, INC., priority 2019, dated 2026)
